Experimental data reported in ChEMBL document CHEMBL5678810.

Key:
[1] = target: Mitogen-activated protein kinase kinase kinase 12 (Homo sapiens) (UniProt Q12852); assay: Inhibition of T7 bacteriophage fused human DLK at 10 uM by KINOMEscan analysis relative to control; values are per cent of control
[2] = target: Testis-specific serine/threonine-protein kinase 1 (Homo sapiens) (UniProt Q9BXA7); assay: Inhibition of T7 bacteriophage fused human TSSK1B at 10 uM by KINOMEscan analysis relative to control
Testis-specific serine/threonine-protein kinase 1 (Homo sapiens), sequence (Q9BXA7 whole entry, the tested form may be a part): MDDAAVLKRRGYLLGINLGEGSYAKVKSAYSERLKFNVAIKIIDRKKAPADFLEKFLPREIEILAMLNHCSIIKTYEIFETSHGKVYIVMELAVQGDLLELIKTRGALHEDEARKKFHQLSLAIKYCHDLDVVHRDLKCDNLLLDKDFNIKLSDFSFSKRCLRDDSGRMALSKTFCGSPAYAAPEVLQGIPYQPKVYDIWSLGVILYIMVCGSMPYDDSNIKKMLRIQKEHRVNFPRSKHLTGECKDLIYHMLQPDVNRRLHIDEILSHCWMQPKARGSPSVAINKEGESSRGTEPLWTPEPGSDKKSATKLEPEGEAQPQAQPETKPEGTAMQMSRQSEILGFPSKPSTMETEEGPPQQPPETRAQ

[3] = target: Tyrosine-protein kinase TXK (Homo sapiens) (UniProt P42681); assay: Inhibition of T7 bacteriophage fused human TXK at 10 uM by KINOMEscan analysis relative to control
[4] = target: BDNF/NT-3 growth factors receptor (Homo sapiens) (UniProt Q16620); assay: Inhibition of T7 bacteriophage fused human TRKB at 10 uM by KINOMEscan analysis relative to control
[5] = target: SRSF protein kinase 2 (Homo sapiens) (UniProt P78362); assay: Inhibition of T7 bacteriophage fused human SRPK2 at 10 uM by KINOMEscan analysis relative to control
[6] = target: Serine/threonine-protein kinase SIK1 (Homo sapiens) (UniProt P57059); assay: Inhibition of T7 bacteriophage fused human SIK at 10 uM by KINOMEscan analysis relative to control
[7] = target: Cyclin-dependent kinase-like 1 (Homo sapiens) (UniProt Q00532); assay: Inhibition of T7 bacteriophage fused human CDKL1 at 10 uM by KINOMEscan analysis relative to control
[8] = target: T1, Dual specificity protein kinase TTK (Homo sapiens) (UniProt P33981); assay: Inhibition of T7 bacteriophage fused human TTK at 10 uM by KINOMEscan analysis relative to control
T1 sequence (whole entry): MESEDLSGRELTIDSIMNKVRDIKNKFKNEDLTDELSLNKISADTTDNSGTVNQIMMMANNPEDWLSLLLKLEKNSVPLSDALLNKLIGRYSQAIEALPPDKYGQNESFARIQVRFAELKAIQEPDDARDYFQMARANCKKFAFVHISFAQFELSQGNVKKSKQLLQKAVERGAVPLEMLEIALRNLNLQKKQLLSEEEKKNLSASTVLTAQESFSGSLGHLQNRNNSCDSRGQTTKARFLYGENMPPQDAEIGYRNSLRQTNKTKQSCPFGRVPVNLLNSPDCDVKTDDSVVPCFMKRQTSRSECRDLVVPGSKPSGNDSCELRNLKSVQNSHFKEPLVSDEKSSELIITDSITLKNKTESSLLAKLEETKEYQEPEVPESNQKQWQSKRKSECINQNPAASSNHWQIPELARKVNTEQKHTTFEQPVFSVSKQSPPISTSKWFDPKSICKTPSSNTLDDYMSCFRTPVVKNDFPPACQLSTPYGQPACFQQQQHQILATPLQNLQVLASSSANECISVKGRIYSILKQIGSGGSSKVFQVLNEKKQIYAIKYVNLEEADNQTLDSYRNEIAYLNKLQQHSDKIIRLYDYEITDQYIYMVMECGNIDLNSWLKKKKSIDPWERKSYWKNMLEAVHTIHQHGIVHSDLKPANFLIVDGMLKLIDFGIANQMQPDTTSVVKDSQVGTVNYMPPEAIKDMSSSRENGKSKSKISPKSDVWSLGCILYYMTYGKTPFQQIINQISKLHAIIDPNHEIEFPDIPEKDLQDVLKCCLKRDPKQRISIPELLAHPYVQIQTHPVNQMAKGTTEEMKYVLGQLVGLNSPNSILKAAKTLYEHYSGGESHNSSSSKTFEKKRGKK

[9] = target: High affinity nerve growth factor receptor (Homo sapiens) (UniProt P04629); assay: Inhibition of T7 bacteriophage fused human TRKA at 10 uM by KINOMEscan analysis relative to control
High affinity nerve growth factor receptor (Homo sapiens), sequence (P04629 33-796 limits assumed): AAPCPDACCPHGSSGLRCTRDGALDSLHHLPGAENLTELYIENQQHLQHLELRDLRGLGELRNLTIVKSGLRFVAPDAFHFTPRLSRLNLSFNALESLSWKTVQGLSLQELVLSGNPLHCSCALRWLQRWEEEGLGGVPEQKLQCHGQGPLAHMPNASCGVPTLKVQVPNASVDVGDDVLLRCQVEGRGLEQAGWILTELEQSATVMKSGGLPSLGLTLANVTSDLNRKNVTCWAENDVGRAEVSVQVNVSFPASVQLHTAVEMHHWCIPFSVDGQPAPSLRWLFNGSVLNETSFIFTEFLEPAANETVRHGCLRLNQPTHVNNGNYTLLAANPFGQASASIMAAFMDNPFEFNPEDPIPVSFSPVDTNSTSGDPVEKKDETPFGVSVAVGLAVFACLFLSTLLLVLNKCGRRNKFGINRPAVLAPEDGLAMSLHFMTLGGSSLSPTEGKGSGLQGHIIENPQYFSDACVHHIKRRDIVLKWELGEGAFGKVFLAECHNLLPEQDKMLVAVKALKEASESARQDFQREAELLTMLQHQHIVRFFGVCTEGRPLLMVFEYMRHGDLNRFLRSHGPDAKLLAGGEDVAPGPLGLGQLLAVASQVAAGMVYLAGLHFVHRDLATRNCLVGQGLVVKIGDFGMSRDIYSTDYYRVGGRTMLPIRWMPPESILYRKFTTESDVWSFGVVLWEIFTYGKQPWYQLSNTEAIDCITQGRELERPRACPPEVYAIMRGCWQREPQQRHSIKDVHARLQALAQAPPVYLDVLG

[10] = target: Serine/threonine-protein kinase TAO3 (Homo sapiens) (UniProt Q9H2K8); assay: Inhibition of T7 bacteriophage fused human TAOK3 at 10 uM by KINOMEscan analysis relative to control
[11] = target: Transient receptor potential cation channel subfamily M member 6 (Homo sapiens) (UniProt Q9BX84); assay: Inhibition of T7 bacteriophage fused human TRPM6 at 10 uM by KINOMEscan analysis relative to control
[12] = target: Tyrosine-protein kinase Yes (Homo sapiens) (UniProt P07947); assay: Inhibition of T7 bacteriophage fused human YES at 10 uM by KINOMEscan analysis relative to control
Tyrosine-protein kinase Yes (Homo sapiens), sequence (P07947 2-543 limits assumed): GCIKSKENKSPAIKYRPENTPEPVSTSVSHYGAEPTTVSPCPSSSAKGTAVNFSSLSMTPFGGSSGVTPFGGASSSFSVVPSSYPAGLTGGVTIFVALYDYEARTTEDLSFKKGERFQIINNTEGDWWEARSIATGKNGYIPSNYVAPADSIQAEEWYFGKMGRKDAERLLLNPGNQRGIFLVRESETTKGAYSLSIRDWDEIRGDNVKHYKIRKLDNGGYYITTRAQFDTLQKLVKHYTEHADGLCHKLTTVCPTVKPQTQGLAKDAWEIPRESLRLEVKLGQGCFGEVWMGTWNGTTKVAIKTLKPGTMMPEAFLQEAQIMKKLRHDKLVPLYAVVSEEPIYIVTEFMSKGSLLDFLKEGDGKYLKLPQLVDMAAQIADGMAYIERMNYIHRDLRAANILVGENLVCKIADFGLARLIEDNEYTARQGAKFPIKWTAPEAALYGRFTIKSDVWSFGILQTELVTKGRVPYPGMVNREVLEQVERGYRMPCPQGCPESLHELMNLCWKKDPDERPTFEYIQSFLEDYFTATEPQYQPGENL

[13] = target: TRAF2 and NCK-interacting protein kinase (Homo sapiens) (UniProt Q9UKE5); assay: Inhibition of T7 bacteriophage fused human TNIK at 10 uM by KINOMEscan analysis relative to control
TRAF2 and NCK-interacting protein kinase (Homo sapiens), sequence (Q9UKE5 whole entry, looked up, the tested form may be a part): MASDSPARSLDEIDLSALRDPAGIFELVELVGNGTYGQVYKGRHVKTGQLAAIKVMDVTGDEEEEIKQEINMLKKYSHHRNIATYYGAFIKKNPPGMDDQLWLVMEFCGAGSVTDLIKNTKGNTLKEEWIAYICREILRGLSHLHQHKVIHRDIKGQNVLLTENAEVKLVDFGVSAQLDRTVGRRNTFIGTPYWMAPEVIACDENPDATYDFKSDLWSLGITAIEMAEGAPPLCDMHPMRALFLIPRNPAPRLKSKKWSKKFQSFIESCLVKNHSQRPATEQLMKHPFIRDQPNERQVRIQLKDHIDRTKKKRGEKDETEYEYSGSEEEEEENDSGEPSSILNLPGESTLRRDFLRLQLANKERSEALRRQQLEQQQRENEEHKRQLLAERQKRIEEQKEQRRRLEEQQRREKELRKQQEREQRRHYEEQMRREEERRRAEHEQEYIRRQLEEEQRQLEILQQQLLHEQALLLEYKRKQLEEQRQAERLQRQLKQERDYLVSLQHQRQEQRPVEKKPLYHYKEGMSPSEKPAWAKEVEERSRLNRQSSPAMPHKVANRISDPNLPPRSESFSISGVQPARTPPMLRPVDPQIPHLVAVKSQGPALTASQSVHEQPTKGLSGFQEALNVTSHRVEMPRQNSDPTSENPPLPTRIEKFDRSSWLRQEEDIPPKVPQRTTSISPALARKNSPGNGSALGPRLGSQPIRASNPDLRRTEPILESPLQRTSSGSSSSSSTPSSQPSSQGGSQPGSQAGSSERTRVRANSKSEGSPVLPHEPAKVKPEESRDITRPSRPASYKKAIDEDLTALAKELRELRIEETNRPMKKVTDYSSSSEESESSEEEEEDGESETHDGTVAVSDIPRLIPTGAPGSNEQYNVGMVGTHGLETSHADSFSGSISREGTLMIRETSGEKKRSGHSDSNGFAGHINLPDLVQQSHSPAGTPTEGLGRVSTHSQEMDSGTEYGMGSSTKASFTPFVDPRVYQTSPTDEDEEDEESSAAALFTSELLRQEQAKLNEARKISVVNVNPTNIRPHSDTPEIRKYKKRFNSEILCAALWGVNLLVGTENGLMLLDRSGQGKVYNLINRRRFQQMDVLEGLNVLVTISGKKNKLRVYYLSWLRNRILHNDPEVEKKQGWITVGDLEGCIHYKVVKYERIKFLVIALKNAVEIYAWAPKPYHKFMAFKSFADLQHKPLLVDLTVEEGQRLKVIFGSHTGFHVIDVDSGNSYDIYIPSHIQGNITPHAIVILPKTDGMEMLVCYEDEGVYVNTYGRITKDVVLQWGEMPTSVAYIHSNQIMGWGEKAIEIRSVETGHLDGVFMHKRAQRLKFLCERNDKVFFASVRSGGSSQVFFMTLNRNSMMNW

[14] = target: Serine/threonine-protein kinase 33 (Homo sapiens) (UniProt Q9BYT3); assay: Inhibition of T7 bacteriophage fused human STK33 at 10 uM by KINOMEscan analysis relative to control
Serine/threonine-protein kinase 33 (Homo sapiens), sequence (Q9BYT3 whole entry, looked up, the tested form may be a part): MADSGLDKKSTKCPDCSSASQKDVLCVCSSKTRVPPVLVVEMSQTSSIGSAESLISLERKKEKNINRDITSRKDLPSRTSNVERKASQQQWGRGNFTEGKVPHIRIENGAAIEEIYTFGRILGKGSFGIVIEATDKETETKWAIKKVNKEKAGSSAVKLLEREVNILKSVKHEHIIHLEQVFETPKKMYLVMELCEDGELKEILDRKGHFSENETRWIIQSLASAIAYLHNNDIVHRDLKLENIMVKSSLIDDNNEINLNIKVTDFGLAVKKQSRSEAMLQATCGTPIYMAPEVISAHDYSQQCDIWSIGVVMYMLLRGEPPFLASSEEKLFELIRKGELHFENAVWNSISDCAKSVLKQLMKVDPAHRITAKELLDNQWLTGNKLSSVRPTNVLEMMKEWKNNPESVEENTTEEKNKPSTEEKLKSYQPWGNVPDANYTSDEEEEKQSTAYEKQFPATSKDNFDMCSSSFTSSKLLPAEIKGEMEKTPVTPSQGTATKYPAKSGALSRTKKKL

[15] = target: SRSF protein kinase 3 (Homo sapiens) (UniProt Q9UPE1); assay: Inhibition of T7 bacteriophage fused human SRPK3 at 10 uM by KINOMEscan analysis relative to control
[16] = target: TGF-beta receptor type-1 (Homo sapiens) (UniProt P36897); assay: Inhibition of T7 bacteriophage fused human TGFBR1 at 10 uM by KINOMEscan analysis relative to control
[17] = target: Serine/threonine-protein kinase VRK2 (Homo sapiens) (UniProt Q86Y07); assay: Inhibition of T7 bacteriophage fused human VRK2 at 10 uM by KINOMEscan analysis relative to control
Serine/threonine-protein kinase VRK2 (Homo sapiens), sequence (Q86Y07 whole entry, the tested form may be a part): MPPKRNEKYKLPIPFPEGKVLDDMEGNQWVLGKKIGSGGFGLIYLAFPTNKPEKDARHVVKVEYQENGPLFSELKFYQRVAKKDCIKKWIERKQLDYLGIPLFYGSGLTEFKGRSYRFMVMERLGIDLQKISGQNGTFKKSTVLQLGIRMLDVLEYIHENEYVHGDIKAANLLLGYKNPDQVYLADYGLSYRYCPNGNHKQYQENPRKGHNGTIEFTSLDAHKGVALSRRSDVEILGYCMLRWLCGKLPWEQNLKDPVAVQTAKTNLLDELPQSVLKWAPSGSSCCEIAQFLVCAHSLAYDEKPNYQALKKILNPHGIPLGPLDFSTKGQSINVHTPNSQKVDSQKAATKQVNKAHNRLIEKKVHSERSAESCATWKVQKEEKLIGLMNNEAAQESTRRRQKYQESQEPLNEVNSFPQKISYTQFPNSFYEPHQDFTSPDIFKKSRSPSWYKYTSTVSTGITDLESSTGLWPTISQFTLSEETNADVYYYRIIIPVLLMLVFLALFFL

[18] = target: Proto-oncogene tyrosine-protein kinase Src (Homo sapiens) (UniProt P12931); assay: Inhibition of T7 bacteriophage fused human SRC at 10 uM by KINOMEscan analysis relative to control
[19] = target: Tyrosine-protein kinase Tec (Homo sapiens) (UniProt P42680); assay: Inhibition of T7 bacteriophage fused human TEC at 10 uM by KINOMEscan analysis relative to control
[20] = target: Wee1-like protein kinase (Homo sapiens) (UniProt P30291); assay: Inhibition of T7 bacteriophage fused human WEE1 at 10 uM by KINOMEscan analysis relative to control
[21] = target: Mitogen-activated protein kinase 10 (Homo sapiens) (UniProt P53779); assay: Inhibition of T7 bacteriophage fused human JNK3 at 10 uM by KINOMEscan analysis relative to control; values are per cent of control
[22] = target: NUAK family SNF1-like kinase 2 (Homo sapiens) (UniProt Q9H093); assay: Inhibition of T7 bacteriophage fused human SNARK at 10 uM by KINOMEscan analysis relative to control
NUAK family SNF1-like kinase 2 (Homo sapiens), sequence (Q9H093 whole entry, the tested form may be a part): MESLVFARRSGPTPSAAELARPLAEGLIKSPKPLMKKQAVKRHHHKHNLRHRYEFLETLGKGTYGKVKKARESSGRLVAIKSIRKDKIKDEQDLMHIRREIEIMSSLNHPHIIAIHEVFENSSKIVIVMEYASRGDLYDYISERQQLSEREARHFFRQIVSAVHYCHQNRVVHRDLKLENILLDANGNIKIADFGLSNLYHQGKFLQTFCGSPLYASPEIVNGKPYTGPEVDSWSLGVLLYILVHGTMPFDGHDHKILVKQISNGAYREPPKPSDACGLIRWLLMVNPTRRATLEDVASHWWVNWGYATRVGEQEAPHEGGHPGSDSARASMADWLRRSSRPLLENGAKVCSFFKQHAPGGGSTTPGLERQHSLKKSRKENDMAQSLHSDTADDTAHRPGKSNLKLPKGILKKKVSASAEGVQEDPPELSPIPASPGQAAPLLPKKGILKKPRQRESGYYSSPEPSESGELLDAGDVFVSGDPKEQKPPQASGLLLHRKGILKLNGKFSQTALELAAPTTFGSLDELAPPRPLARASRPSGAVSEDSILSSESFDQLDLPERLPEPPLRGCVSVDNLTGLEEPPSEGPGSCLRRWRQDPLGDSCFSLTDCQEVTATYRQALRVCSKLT

[23] = target: Microtubule-associated serine/threonine-protein kinase 1 (Homo sapiens) (UniProt Q9Y2H9); assay: Inhibition of T7 bacteriophage fused human MAST1 at 10 uM by KINOMEscan analysis relative to control; values are per cent of control
[24] = target: Cyclin-dependent kinase 2 homolog (Plasmodium falciparum (isolate K1 / Thailand)) (UniProt Q07785); assay: Inhibition of T7 bacteriophage fused Plasmodium falciparum PK5 at 10 uM by KINOMEscan analysis relative to control
Cyclin-dependent kinase 2 homolog (Plasmodium falciparum (isolate K1 / Thailand)), sequence (Q07785 whole entry, the tested form may be a part): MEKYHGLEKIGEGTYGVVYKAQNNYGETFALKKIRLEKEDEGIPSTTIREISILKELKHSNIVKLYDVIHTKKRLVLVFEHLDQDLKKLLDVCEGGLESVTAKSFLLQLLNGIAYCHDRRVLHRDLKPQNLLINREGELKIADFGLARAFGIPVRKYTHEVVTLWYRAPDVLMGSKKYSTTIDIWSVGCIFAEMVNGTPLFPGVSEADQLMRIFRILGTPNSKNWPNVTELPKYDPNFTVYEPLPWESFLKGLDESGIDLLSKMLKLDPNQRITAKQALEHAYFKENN

Structure (SMILES) | residual activity [1] | inhibition [2] | inhibition [3] | inhibition [4] | inhibition [5] | inhibition [6] | inhibition [8] | inhibition [9] | inhibition [10] | inhibition [11] | inhibition [12] | inhibition [13] | inhibition [14] | inhibition [15] | inhibition [16] | inhibition [17] | inhibition [18] | inhibition [19] | inhibition [20] | inhibition [22] | further results
COc1cc(N2CCC(N3CCN(C)CC3)CC2)ccc1Nc1ncc2c(n1)N(C)c1ccccc1C(=O)N2C | 81% | 60% | 91% | 100% | 100% | 77% | 28% | 69% | 24% | 100% | 100% | 100% | 10% | 72% | 100% | 99% | 100% | 100% | 100% | 47% | inhibition [7]: 78%; residual activity [21]: 77%; residual activity [23]: 100%; inhibition [24]: 100%
CCOc1cc(C(=O)N2CCC(N3CCN(C)CC3)CC2)ccc1Nc1ncc2c(n1)N(C1CCCC1)c1ccccc1C(=O)N2C | 100% | 100% | 100% | 100% | 100% | 100% | 49% | 100% |  |  | 100% |  | 100% | 100% | 100% |  | 100% | 100% | 100% |  | residual activity [23]: 100%; inhibition [24]: 100%
COc1cc(C(=O)N2CCC(N3CCN(C)CC3)CC2)ccc1Nc1ncc2c(n1)N(C1CCCC1)c1ccccc1C(=O)N2C |  |  |  |  |  |  |  |  | 100% | 100% |  | 100% |  |  |  | 100% |  |  |  | 100% | 
